Laboratory results taken from PubChem BioAssay (NCI).
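The concentration for 50% growth inhibition is given as GI50. TGI denotes the concentration required for complete inhibition of growth.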

What was measured:
Experiment in all cases: NCI tumour cell line growth inhibition, 384-well format
A498 renal = system: A498 renal
HCT-116 colon = system: HCT-116 colon
SK-MEL-28 melanoma = system: SK-MEL-28 melanoma
M14 melanoma = system: M14 melanoma
HOP-92 NSCLC = system: HOP-92 NSCLC
MALME-3M melanoma = system: MALME-3M melanoma
SW-620 colon = system: SW-620 colon
SF-268 CNS = system: SF-268 CNS
K-562 leukemia = system: K-562 leukemia
SK-OV-3 ovarian = system: SK-OV-3 ovarian
NCI-H322M lung = system: NCI-H322M lung
U251 glioblastoma = system: U251 glioblastoma
HCT-15 colon = system: HCT-15 colon
786-0 renal = system: 786-0 renal
HCC-2998 colon = system: HCC-2998 colon
A549 NSCLC = system: A549 NSCLC
UACC-257 melanoma = system: UACC-257 melanoma
NCI-H460 NSCLC = system: NCI-H460 NSCLC
ACHN renal = system: ACHN renal
NCI/ADR-RES ovarian = system: NCI/ADR-RES ovarian
COLO 205 colon = system: COLO 205 colon
IGROV1 ovarian = system: IGROV1 ovarian
T-47D breast = system: T-47D breast
OVCAR-8 ovarian = system: OVCAR-8 ovarian
EKVX NSCLC = system: EKVX NSCLC
MDA-MB-468 breast = system: MDA-MB-468 breast
HL-60(TB) leukemia = system: HL-60(TB) leukemia
SN12C renal = system: SN12C renal
RXF 393 renal = system: RXF 393 renal
NCI-H23 lung = system: NCI-H23 lung
NCI-H226 lung = system: NCI-H226 lung
SF-295 CNS = system: SF-295 CNS
UO-31 renal = system: UO-31 renal
MCF7 breast = system: MCF7 breast
OVCAR-5 ovarian = system: OVCAR-5 ovarian
TK-10 renal = system: TK-10 renal
MDA-MB-435 melanoma = system: MDA-MB-435 melanoma
CCRF-CEM leukemia = system: CCRF-CEM leukemia
CAKI-1 renal = system: CAKI-1 renal
HS 578T breast = system: HS 578T breast
OVCAR-3 ovarian = system: OVCAR-3 ovarian
HT29 colon = system: HT29 colon
SF-539 CNS = system: SF-539 CNS
BT-549 breast = system: BT-549 breast
NCI-H522 lung = system: NCI-H522 lung
PC-3 prostate = system: PC-3 prostate
KM12 colon = system: KM12 colon
OVCAR-4 ovarian = system: OVCAR-4 ovarian
MOLT-4 leukemia = system: MOLT-4 leukemia
SNB-19 CNS = system: SNB-19 CNS
SK-MEL-5 melanoma = system: SK-MEL-5 melanoma
HOP-62 NSCLC = system: HOP-62 NSCLC
RPMI-8226 leukemia = system: RPMI-8226 leukemia
SNB-75 CNS = system: SNB-75 CNS

For COc1cc(C(=O)NC2CCN(C)CC2)ccc1Nc1ncc2c(n1)N(C1CCCC1)CC(F)(F)C(=O)N2C, the GI50 (A498 renal) was 106 nM, the TGI (A498 renal) was 12300 nM and the GI50 (HCT-116 colon) was less than 10 nM. The TGI (HCT-116 colon) was 1170 nM, the GI50 (SK-MEL-28 melanoma) was 46.4 nM and the TGI (SK-MEL-28 melanoma) was 4740 nM. It also gave a GI50 (M14 melanoma) of 12.5 nM, a TGI (M14 melanoma) of 74.3 nM and a GI50 (HOP-92 NSCLC) of 20.7 nM. It also gave a TGI (HOP-92 NSCLC) of 902 nM, a GI50 (MALME-3M melanoma) of 29.5 nM and a TGI (MALME-3M melanoma) of 1590 nM. For the same compound, the GI50 (SW-620 colon) was less than 10 nM, the TGI (SW-620 colon) was 97.4 nM and the GI50 (SF-268 CNS) was less than 10 nM. The TGI (SF-268 CNS) was less than 10 nM, the GI50 (K-562 leukemia) was less than 10 nM and the TGI (K-562 leukemia) was 19.7 nM. For the same compound, the GI50 (SK-OV-3 ovarian) was 11.4 nM, the TGI (SK-OV-3 ovarian) was 494 nM and the GI50 (NCI-H322M lung) was 842 nM. The TGI (NCI-H322M lung) was 11800 nM, the GI50 (U251 glioblastoma) was less than 10 nM and the TGI (U251 glioblastoma) was 1440 nM. It also gave a GI50 (HCT-15 colon) of 219 nM, a TGI (HCT-15 colon) of 1220 nM and a GI50 ([…]-0 renal) of 41 nM. For the same compound, the TGI (786-0 renal) was 1350 nM, the GI50 (HCC-2998 colon) was 11.6 nM and the TGI (HCC-2998 colon) was 39.6 nM. The GI50 (A549 NSCLC) was less than 10 nM, the TGI (A549 NSCLC) was 707 nM and the GI50 (UACC-257 melanoma) was 21.7 nM. For the same compound, the TGI (UACC-257 melanoma) was 2060 nM, the GI50 (NCI-H460 NSCLC) was 11.5 nM and the TGI (NCI-H460 NSCLC) was 35.5 nM. For the same compound, the GI50 (ACHN renal) was 666 nM, the TGI (ACHN renal) was 14100 nM and the GI50 (NCI/ADR-RES ovarian) was 1660 nM. For the same compound, the TGI (NCI/ADR-RES ovarian) was 3980 nM, the GI50 (COLO 205 colon) was less than 10 nM and the TGI (COLO 205 colon) was 10700 nM. The GI50 (IGROV1 ovarian) was 18.6 nM, the TGI (IGROV1 ovarian) was 2070 nM and the GI50 (T-47D breast) was 28.2 nM. The TGI (T-47D breast) was 365 nM, the GI50 (OVCAR-8 ovarian) was 12.3 nM and the TGI (OVCAR-8 ovarian) was 29.3 nM. The GI50 (EKVX NSCLC) was 79.3 nM, the TGI (EKVX NSCLC) was 2700 nM and the GI50 (MDA-MB-468 breast) was less than 10 nM. It also gave a TGI (MDA-MB-468 breast) of less than 10 nM, a GI50 (HL-60(TB) leukemia) of less than 10 nM and a TGI (HL-60(TB) leukemia) of less than 10 nM. For the same compound, the GI50 (SN12C renal) was 43.9 nM, the TGI (SN12C renal) was 1750 nM and the GI50 (RXF 393 renal) was less than 10 nM. The TGI (RXF 393 renal) was 35 nM, the GI50 (NCI-H23 lung) was less than 10 nM and the TGI (NCI-H23 lung) was 20 nM. For the same compound, the GI50 (NCI-H226 lung) was 1560 nM, the TGI (NCI-H226 lung) was 6190 nM and the GI50 (SF-295 CNS) was 29.9 nM. For the same compound, the TGI (SF-295 CNS) was 134 nM, the GI50 (UO-31 renal) was 1310 nM and the TGI (UO-31 renal) was 7870 nM. It also gave a GI50 (MCF7 breast) of less than 10 nM, a TGI (MCF7 breast) of 1440 nM and a GI50 (OVCAR-5 ovarian) of 12.2 nM. It also gave a TGI (OVCAR-5 ovarian) of 1290 nM, a GI50 (TK-10 renal) of 1090 nM and a TGI (TK-10 renal) of 4950 nM. The GI50 (MDA-MB-435 melanoma) was less than 10 nM, the TGI (MDA-MB-435 melanoma) was 12.2 nM and the GI50 (CCRF-CEM leukemia) was less than 10 nM. The TGI (CCRF-CEM leukemia) was less than 10 nM, the GI50 (CAKI-1 renal) was 194 nM and the TGI (CAKI-1 renal) was 10600 nM. For the same compound, the GI50 (HS 578T breast) was less than 10 nM, the TGI (HS 578T breast) was 31.1 nM and the GI50 (OVCAR-3 ovarian) was less than 10 nM. It also gave a TGI (OVCAR-3 ovarian) of less than 10 nM, a GI50 (HT29 colon) of less than 10 nM and a TGI (HT29 colon) of 21.5 nM. It also gave a GI50 (SF-539 CNS) of 17.2 nM, a TGI (SF-539 CNS) of 263 nM and a GI50 (BT-549 breast) of 11.3 nM. For the same compound, the TGI (BT-549 breast) was 159 nM, the GI50 (NCI-H522 lung) was less than 10 nM and the TGI (NCI-H522 lung) was less than 10 nM. For the same compound, the GI50 (PC-3 prostate) was 33.8 nM, the TGI (PC-3 prostate) was 13200 nM and the GI50 (KM12 colon) was less than 10 nM. It also gave a TGI (KM12 colon) of 11200 nM, a GI50 (OVCAR-4 ovarian) of 1640 nM and a TGI (OVCAR-4 ovarian) of 7570 nM. The GI50 (MOLT-4 leukemia) was less than 10 nM, the TGI (MOLT-4 leukemia) was less than 10 nM and the GI50 (SNB-19 CNS) was less than 10 nM. The TGI (SNB-19 CNS) was 3080 nM, the GI50 (SK-MEL-5 melanoma) was less than 10 nM and the TGI (SK-MEL-5 melanoma) was 180 nM. It also gave a GI50 (HOP-62 NSCLC) of less than 10 nM, a TGI (HOP-62 NSCLC) of 2210 nM and a GI50 (RPMI-8226 leukemia) of 18.8 nM. It also gave a TGI (RPMI-8226 leukemia) of 43.7 nM, a GI50 (SNB-75 CNS) of 57.4 nM and a TGI (SNB-75 CNS) of 7490 nM.
